# Experimental data reported in patent US20060014197A1, “In vivo screening methods for identifying inhibitors of RNA polymerases” (priority 2004, published 2006).
# Tests used:
# resident RNAPII = target: T1, resident RNAPII (Homo sapiens, UniProt P24928); assay: Tet-ON GFP reporter assay in transfected eukaryotic cells, no amanitin-resistant RPB1 expressed; type: cell-based; settings: human HeLa or 293 cells, amanitin added, doxycycline induction, 48 hours; FIG. 7B
# T1 construct: endogenous in cells; host or cells: human HeLa or 293 cells
# [1] = target: T2, amanitin-resistant RNAPII (human RPB1 N792D) (Homo sapiens, UniProt P24928, N792D); assay: Tet-ON GFP reporter assay in transfected eukaryotic cells expressing amanitin-resistant RPB1; type: cell-based; settings: human HeLa or 293 cells with plasmid-expressed amanitin-resistant RPB1, amanitin added, doxycycline induction, 48 hours; FIG. 7B
# T2 construct: expressed in transfected cells; host or cells: human HeLa or 293 cells transfected with the RPB1 plasmid and pGFP
compound,measurement,setting,value
"CC[C@H](C)[C@@H]1NC(=O)CNC(=O)[C@@H]2Cc3c([nH]c4cc(O)ccc34)[S+]([O-])C[C@@H](NC(=O)CNC1=O)C(=O)N[C@@H](CC(N)=O)C(=O)N1C[C@H](O)C[C@H]1C(=O)N[C@@H]([C@@H](C)[C@@H](O)CO)C(=O)N2 (stereo partly drawn) [amanitin, alpha-amanitin]",GFP fluorescent signal (flow cytometer),resident RNAPII,no fluorescent signal is observed
same,GFP fluorescent signal (flow cytometer),[1],results in fluorescent signal
